Results on 13 compounds are retold here after PubChem BioAssay (NCI).

Test systems include MALME-3M melanoma; XF 498 CNS; SNB-78 CNS; UO-31 renal; SF-295 CNS; M19-MEL melanoma; RPMI-8226 leukemia; CAKI-1 renal; LXFL 529 NSCLC; TK-10 renal; HS 578T breast; DU-145 prostate.
Holding throughout (test): NCI-60 cell line screen, 48 h

Structures are written as SMILES.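 Dose response: 5 concentrations. Exposure: 48 h. Format: 96-well plates. Endpoint: linear interpolation; highest concentration if not reached. Abbreviation: GI50, concentration required for 50% inhibition of growth. TGI marks complete inhibition of growth.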

In the case of `O=NN(CCCl)C(=O)NC1CCC(O)CC1` (configuration not stated), the TGI with MALME-3M melanoma was > 71.1 µM; with XF 498 CNS, 60.3 µM; with SNB-78 CNS it was 63.3 µM; with UO-31 renal, > 100 µM; in the assay with SF-295 CNS, > 80.2 µM; with M19-MEL melanoma, > 91 µM. For the same compound, the TGI is 34.9 µM in the assay on RPMI-8226 leukemia and > 89.6 µM in the assay with CAKI-1 renal.
With `O=C(CN(c1ccccc1)c1ccccc1)n1nnc2ccccc21`, the TGI is > 100 µM in the assay with LXFL 529 NSCLC; > 100 µM in the assay on MALME-3M melanoma; > 100 µM in the assay with SNB-78 CNS; 55.2 µM in the assay on UO-31 renal; > 100 µM with SF-295 CNS; 48.6 µM in the assay on M19-MEL melanoma. Also, the TGI with RPMI-8226 leukemia, in the assay with TK-10 renal and in the assay with CAKI-1 renal was > 100 µM each time.
For `Cc1ccc(S(=O)(=O)C(C#N)c2nc3ccccc3nc2-n2ccnc2)cc1` (configuration not stated), the TGI with LXFL 529 NSCLC, in the assay with MALME-3M melanoma, with XF 498 CNS, with SNB-78 CNS, in the assay with UO-31 renal and in the assay on SF-295 CNS was > 100 µM in each case. Besides, the TGI in the assay with M19-MEL melanoma, with RPMI-8226 leukemia and with TK-10 renal was > 100 µM in each case.
Take `COc1c(C(C)C)cc2c3c1OC(=O)[C@@]31CCCC(C)(C)C1CC2` (some centres not stated): the TGI in the assay on LXFL 529 NSCLC was 49.8 µM; with MALME-3M melanoma, 98.5 µM; in the assay with SNB-78 CNS, 67.1 µM; with UO-31 renal, 57.8 µM; with SF-295 CNS it was 78.7 µM; in the assay with M19-MEL melanoma, 80.8 µM. Moreover, the TGI in the assay with RPMI-8226 leukemia was 59.8 µM; with TK-10 renal it was 99.8 µM; in the assay on CAKI-1 renal it was > 100 µM.
As for `CC(=O)O[C@]12CCCCCC1C1(O)C(O)CCCC[C@H]12` (some centres not stated), the TGI with LXFL 529 NSCLC, in the assay with MALME-3M melanoma, in the assay with XF 498 CNS, in the assay with SNB-78 CNS, with UO-31 renal and in the assay on SF-295 CNS was > 100 µM each time. The TGI in the assay with M19-MEL melanoma, with RPMI-8226 leukemia and in the assay with TK-10 renal was > 100 µM throughout.
For the compound `CSc1sc2ccccc2[s+]1`, the TGI in the assay on LXFL 529 NSCLC, with MALME-3M melanoma, in the assay on UO-31 renal, in the assay with SF-295 CNS, in the assay on M19-MEL melanoma and in the assay on RPMI-8226 leukemia was > 100 µM throughout. The TGI in the assay with TK-10 renal and in the assay on CAKI-1 renal was > 100 µM in each case.
Take `COc1cc2c3c(c1OC)C1(C=CC(=O)C=C1)C[C@H]3N(C)CC2`: the TGI in the assay on LXFL 529 NSCLC, with MALME-3M melanoma, with XF 498 CNS, with SNB-78 CNS, in the assay on UO-31 renal and in the assay with SF-295 CNS was > 100 µM in each case. Further, the TGI with M19-MEL melanoma, with RPMI-8226 leukemia and in the assay with TK-10 renal was > 100 µM in each case.
On to `CC(=O)[C@@]1(O)CC[C@H]2[C@@H]3C[C@H](C)C4=CC(=O)C=C[C@]4(C)[C@@]3(F)[C@@H](O)C[C@@]21C`, for which the TGI in the assay with LXFL 529 NSCLC, in the assay on HS 578T breast, with MALME-3M melanoma, with XF 498 CNS, in the assay with SNB-78 CNS and with DU-145 prostate was > 100 µM throughout. The TGI in the assay with UO-31 renal, in the assay with SF-295 CNS, in the assay on M19-MEL melanoma, in the assay with RPMI-8226 leukemia, in the assay with TK-10 renal and with CAKI-1 renal was > 100 µM in each case.
`OCc1ccc(C2CC(c3ccco3)=NN2c2ccccc2)o1` (configuration not stated): the TGI in the assay on LXFL 529 NSCLC, with MALME-3M melanoma, in the assay with XF 498 CNS, in the assay on SNB-78 CNS, with UO-31 renal and with SF-295 CNS was > 100 µM each time. The TGI in the assay with M19-MEL melanoma, in the assay on RPMI-8226 leukemia and with TK-10 renal was > 100 µM throughout.
Consider `COc1ccc(-c2nn(-c3ccc(NC(=O)Nc4cc(C(F)(F)F)cc(C(F)(F)F)c4)cc3)cc2-c2ccncc2)cc1Cl`, for which the GI50 is 1.53 µM in the assay on HS 578T breast; 2.11 µM in the assay on MALME-3M melanoma; 4.25 µM in the assay with DU-145 prostate; 1.51 µM in the assay with UO-31 renal; 2.52 µM with SF-295 CNS; 1.23 µM with RPMI-8226 leukemia. Moreover, the values for the GI50 with TK-10 renal and with CAKI-1 renal were 1.85 µM and 2.51 µM, respectively. Also, the TGI was 6.76 µM in the assay with HS 578T breast; 7.88 µM in the assay on MALME-3M melanoma; > 100 µM in the assay with DU-145 prostate; 6.33 µM in the assay on UO-31 renal; > 100 µM in the assay with SF-295 CNS; 3.58 µM in the assay on RPMI-8226 leukemia. Moreover, the TGI in the assay with TK-10 renal is 7.25 µM; in the assay with CAKI-1 renal, > 100 µM.
As to `Nc1[nH]nc2nc3ccc(C(F)(F)F)cc3nc12`, the TGI in the assay on HS 578T breast was > 100 µM; with MALME-3M melanoma, > 100 µM; in the assay on DU-145 prostate it was 36.8 µM; in the assay with UO-31 renal, 49.9 µM; in the assay on SF-295 CNS it was 97.3 µM; with RPMI-8226 leukemia it was > 100 µM. In addition, the TGI in the assay with TK-10 renal and with CAKI-1 renal was > 100 µM each time.
Turning to `O=c1oc2ccc([N+](=O)[O-])cc2c(Nc2ccc3c(c2)Oc2ccccc2O3)c1[N+](=O)[O-]`, the TGI was > 100 µM in the assay with HS 578T breast; > 100 µM in the assay with MALME-3M melanoma; > 100 µM with DU-145 prostate; > 100 µM in the assay on UO-31 renal; > 100 µM in the assay on SF-295 CNS; 70.2 µM with RPMI-8226 leukemia. Also, the TGI with TK-10 renal and with CAKI-1 renal was > 100 µM throughout.
Regarding `CCC(=O)ONC(=O)Cn1ccc([N+](=O)[O-])n1`, the TGI with HS 578T breast, in the assay on MALME-3M melanoma, in the assay on DU-145 prostate, in the assay on UO-31 renal, with SF-295 CNS and in the assay with RPMI-8226 leukemia was > 100 µM in each case. Further, the TGI in the assay with TK-10 renal and in the assay on CAKI-1 renal was > 100 µM each time.
